Data from patent publication US10800725B2, “Arylpropionyl-triketone antibacterial agents” (priority 2010, dated 2020).
≈ marks a conversion by molar mass, not a printed value.

Legend:
[1] = test system: Staphylococcus aureus ATCC 13709 MSSA; assay: MIC, spiral gradient endpoint assay; details: read-out: MIC S. aureus 13709
[2] = test system: Staphylococcus aureus ATCC 12600; assay: MIC, spiral gradient endpoint assay; details: ATCC12600, read-out: MIC S. aureus 12600
[3] = test system: Streptococcus pneumoniae ATCC 49619; assay: MIC, spiral gradient endpoint assay (GC II agar, 5% CO2); details: ATCC49619, read-out: MIC S. pneumoniae 49619
[4] = target: S. aureus RNA polymerase core enzyme + σA (Staphylococcus aureus (strain NCTC 8325 / PS 47), UniProt P47768+Q2G0N5); assay: Fluorescence-detected RNA polymerase assay, S. aureus RNAP; type: biochemical
Experimental: (§1) Fluorescence-detected RNA polymerase assays with E. coli RNA polymerase were performed by a modification of the procedure of Kuhlman et al., 2004 [Kuhlman, P., Duff, H. & Galant, A. (2004) A fluorescence-based assay for multisubunit DNA-dependent RNA polymerases. Anal. Biochem. 324, 183-190]. Reaction mixtures contained (20 μl): 0-100 nM test compound, 75 nM E. coli RNA polymerase σ^70 holoenzyme, 20 nM 384 bp DNA fragment containing the bacteriophage T4 N25 promoter, 100 μM ATP, 100 μM GTP, 100 μM UTP, 100 μM CTP, 50 mM Tris-HCl, pH 8.0, 100 mM KCl, 10 mM MgCl2, 1 mM DTT, 10 μg/ml bovine serum albumin, and 5.5% glycerol. Reaction components other than DNA and NTPs were pre-incubated for 10 min at 37° C. Reactions were carried out by addition of DNA and incubation for 5 min at 37° C., followed by addition of NTPs and incubation for 60 min at 37° C. DNA was removed by addition of 1 μl 5 mM CaCl2 and 2 U DNaseI (Ambion, Inc.), followed by incubation for 90 min at 37° C. RNA was quantified by addition of 100 μl RiboGreen RNA Quantitation Reagent (Invitrogen, Inc.; 1:500 dilution in Tris-HCl, pH 8.0, 1 mM EDTA), followed by incubation for 10 min at 25° C., followed by measurement of fluorescence intensity [excitation wavelength=485 nm and emission wavelength=535 nm; QuantaMaster QM1 spectrofluorometer (PTI, Inc.)]. IC50 is defined as the concentration of inhibitor resulting in 50% inhibition of RNA polymerase activity.
(§2) Fluorescence-detected RNA polymerase assays with S. aureus RNA polymerase were performed as in Example 21.1, using reaction mixtures containing (20 μl): 0-100 nM test compound, 75 nM S. aureus RNA polymerase core enzyme, 300 nM S. aureus σ^A, 20 nM 384 bp DNA fragment containing the bacteriophage T4 N25 promoter, 100 μM ATP, 100 μM GTP, 100 μM UTP, 100 μM CTP, 40 mM Tris-HCl, pH 8.0, 80 mM NaCl, 5 mM MgCl2, 2.5 mM DTT, and 12.7% glycerol. IC50 is defined as the concentration of inhibitor resulting in 50% inhibition of RNA polymerase activity.

[5] = test system: Streptococcus pyogenes ATCC 12344; assay: MIC, spiral gradient endpoint assay (GC II agar, 5% CO2); details: ATCC12344, read-out: MIC S. pyogenes 12344
[6] = test system: Francisella tularensis SCHU4; assay: microbe, parasite or virus in culture; type: cell-based; details: SCHU4, read-out: MIC F. tularensis SCHU4
[7] = test system: Enterococcus faecalis ATCC 19433; assay: MIC, spiral gradient endpoint assay; details: ATCC19433, read-out: MIC E. faecalis 19433
[8] = test system: Staphylococcus aureus BAA-1717 MRSA (USA300); assay: MIC, spiral gradient endpoint assay; details: read-out: MIC S. aureus MRSA 1717
[9] = test system: Moraxella catarrhalis ATCC 25238; assay: MIC, spiral gradient endpoint assay (GC II agar, 5% CO2); details: ATCC25238, read-out: MIC M. catarrhalis 25238
[10] = test system: Staphylococcus aureus BAA-1707 MRSA (MW2); assay: MIC, spiral gradient endpoint assay; details: read-out: MIC S. aureus MRSA 1707
[11] = test system: Escherichia coli D21f2tolC; assay: MIC, spiral gradient endpoint assay; details: read-out: MIC E. coli D21f2tolC
[12] = test system: Mycobacterium tuberculosis H37Rv; assay: MIC, microplate Alamar Blue assay; details: read-out: MIC M. tuberculosis H37Rv
[13] = test system: Bacillus anthracis Vollum-1b; assay: microbe, parasite or virus in culture; type: cell-based; details: VOLLUM1B, read-out: MIC B. anthracis Vollum-1b
[14] = target: E. coli RNA polymerase σ70 holoenzyme (Escherichia coli (strain K12), UniProt P0A8T7+P0A8V2); assay: Fluorescence-detected RNA polymerase assay, E. coli RNAP; type: biochemical
Experimental: as §1

[15] = test system: Enterococcus faecium ATCC 19434; assay: MIC, spiral gradient endpoint assay; details: ATCC19434, read-out: MIC E. faecium 19434
[16] = target: M. tuberculosis RNA polymerase core enzyme + σA (Mycobacterium tuberculosis (strain ATCC 25618 / H37Rv), UniProt P9WGY7+P9WGY9); assay: Fluorescence-detected RNA polymerase assay, M. tuberculosis RNAP; type: biochemical
Experimental: as §1
as §2, with “M. tuberculosis” for “S. aureus”

| SMILES | MIC [1] [mg/L] | MIC [2] [mg/L] | MIC [3] [mg/L] | IC50 [4] [µM] | MIC [5] [mg/L] | MIC [6] [mg/L] | MIC [7] [mg/L] | MIC [8] [mg/L] | MIC [9] [mg/L] | MIC [10] [mg/L] | MIC [11] [mg/L] | MIC [12] [mg/L] | MIC [13] [mg/L] | IC50 [14] [µM] | MIC [15] [mg/L] | IC50 [16] [µM] |
| --- | --- | --- | --- | --- | --- | --- | --- | --- | --- | --- | --- | --- | --- | --- | --- | --- |
| CCCCCC1=C(O)C(CCCCC)(CCCCC)C(=O)C(C(=O)CCc2ccccc2)=C1O [Compound 19, 3,5-dihydroxy-2-(3-phenylpropanoyl)-4,6,6-tripentylcyclohexa-2,4-dienone] | 3 (≈ 6.4 µM) | 2 (≈ 4.27 µM) | 15 (≈ 32 µM) | 13 | 15 (≈ 32 µM) | 0.39 (≈ 0.832 µM) | 9 (≈ 19.2 µM) | 1 (≈ 2.13 µM) | 19 (≈ 40.5 µM) | 0.7 (≈ 1.49 µM) | 14 (≈ 29.9 µM) | 50 (≈ 107 µM) | 0.049 (≈ 0.105 µM) | 7.3 | 2 (≈ 4.27 µM) | 4.1 |
| CC(C)CCC1=C(O)C(CCC(C)C)(CCC(C)C)C(=O)C(C(=O)C(C)Cc2ccccc2)=C1O (centres unmarked) [Compound 20, 3,5-dihydroxy-2-(2-methyl-3-phenylpropanoyl)-4,6,6-triisopentylcyclohexa-2,4-dienone] | 0.7 (≈ 1.45 µM) | 0.4 (≈ 0.829 µM) | 19 (≈ 39.4 µM) | 13 | 15 (≈ 31.1 µM) | 0.78 (≈ 1.62 µM) | 0.7 (≈ 1.45 µM) | 0.7 (≈ 1.45 µM) | 24 (≈ 49.7 µM) | 0.7 (≈ 1.45 µM) | 6 (≈ 12.4 µM) | 50 (≈ 104 µM) | 0.098 (≈ 0.203 µM) | 12 | 0.6 (≈ 1.24 µM) | 7.3 |
